Data from ChEMBL document CHEMBL3351390, “DNA repair and redox activities and inhibitors of apurinic/apyrimidinic endonuclease 1/redox effector factor 1 (APE1/Ref-1): a comparative analysis and their scope and limitations toward anticancer drug development” (J Med Chem, 2014).

Molecular target: DNA repair nuclease/redox regulator APEX1 (Homo sapiens, UniProt P27695)
Assay: Inhibition of human APE1 after 25 mins by fluorescence assay

Chain of DNA repair nuclease/redox regulator APEX1 (P27695 whole entry): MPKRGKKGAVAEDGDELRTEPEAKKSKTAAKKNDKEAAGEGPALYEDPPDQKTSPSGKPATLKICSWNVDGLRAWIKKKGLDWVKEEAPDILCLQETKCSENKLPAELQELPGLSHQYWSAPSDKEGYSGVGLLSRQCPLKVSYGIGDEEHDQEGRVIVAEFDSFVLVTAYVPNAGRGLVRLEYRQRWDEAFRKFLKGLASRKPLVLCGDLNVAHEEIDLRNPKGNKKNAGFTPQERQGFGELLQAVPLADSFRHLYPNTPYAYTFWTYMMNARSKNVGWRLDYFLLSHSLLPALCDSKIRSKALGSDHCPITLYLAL

IC50 [µM] | SMILES
0.25 | Nc1c(S(=O)(=O)O)cc(Nc2ccc(Nc3nc(Cl)nc(Nc4ccc(S(=O)(=O)O)cc4)n3)c(S(=O)(=O)O)c2)c2c1C(=O)c1ccccc1C2=O
3 | O=C(O)c1cc2cccc([N+](=O)[O-])c2[nH]1
10 | O=C(O)C1=CC(=C(c2ccc(O)c(C(=O)O)c2)c2ccc(O)c(C(=O)O)c2)C=CC1=O [AURINTRICARBOXYLIC ACID]
